Assay [1] deals with murine M12.4.1 lymphoma cells. The assay is described as follows: M12.4.1 lymphoma cell proliferation, 3H-thymidine incorporation. The format is cell-based. As to the method:
A variety of experiments were performed in an effort to determine the effect of the benzimidazole compounds on cellular proliferation. These experiments ultimately measured ^3H-thymidine incorporation into proliferating cell DNA. The specific procedure varied with the cells and the stimuli. Cells derived from mouse spleen were cultured at 3 million per ml; cell lines were seeded at 0.1 to 1 million per ml. Splenic B cells were isolated by T cell depletion and stimulated with phorbol myristate acetate (PMA) (10 ng/ml) plus ionomycin (100 nM), or IL-4 (10 ng/ml) plus anti-CD40 Ab (100 ng/ml). T cells were depleted prior to culture by incubating spleen cells first with a cocktail of anti-Thyl ascites (10%), anti-CD4 Ab (0.5 μg/ml) and anti-CD8 Ab (0.5 μg/ml), followed by guinea pig complement (adsorbed). Cell lines were unstimulated or stimulated with Human Epidermal Growth Factor (EGF) (100 ng/ml). All cells were cultured in 96-well plates for 2–3 days and pulsed for 6 to 14 hours with 50 μl of 3H-thymidine (50 μCi/ml). In tumor cells, the results with splenic lymphocytes led to a further analysis of cellular proliferation by measuring the growth of tumor cells in the presence of these drugs. The initial analysis was performed with murine M12.4.1 lymphoma cells, either un-stimulated or stimulated with IL-4/anti-CD40 Ab. […]

The subject of a further assay is Splenic B cells. The assay is described as follows: Spleen cell / splenic B cell proliferation, 3H-thymidine incorporation. The format is cell-based, mouse. On the procedure:
(§1) Spleen cell cultures were established from naive BALB/c mice and incubated for 4 days in the presence of stimulus and drug. Cultures were pulsed for 4 hours with 3H-thymidine and harvested. A variety of experiments were performed in an effort to determine the effect of the benzimidazole compounds on cellular proliferation. These experiments ultimately measured ^3H-thymidine incorporation into proliferating cell DNA. The specific procedure varied with the cells and the stimuli. Cells derived from mouse spleen were cultured at 3 million per ml; cell lines were seeded at 0.1 to 1 million per ml. Splenic B cells were isolated by T cell depletion and stimulated with phorbol myristate acetate (PMA) (10 ng/ml) plus ionomycin (100 nM), or IL-4 (10 ng/ml) plus anti-CD40 Ab (100 ng/ml). T cells were depleted prior to culture by incubating spleen cells first with a cocktail of anti-Thyl ascites (10%), anti-CD4 Ab (0.5 μg/ml) and anti-CD8 Ab (0.5 μg/ml), followed by guinea pig complement (adsorbed). Cell lines were unstimulated or stimulated with Human Epidermal Growth Factor (EGF) (100 ng/ml). All cells were cultured in 96-well plates for 2–3 days and pulsed for 6 to 14 hours with 50 μl of 3H-thymidine (50 μCi/ml).
For orientation: Incorporation of labelled thymidine or its analogues reports DNA synthesis.

For a further assay, the system named is cytokine release. The assay is described as follows: ConA-stimulated cytokine release. The format is cell-based.
A further assay concerns ER-positive cell lines. The assay is described as follows: Proliferation of ER-positive breast cancer cell lines. The assay is classed as cell-based. Conditions: in vitro. On the procedure:
as §1, with “A” for “Spleen cell cultures were established from naive BALB/c mice and incubated for 4 days in the presence of stimulus and drug. Cultures were pulsed for 4 hours with 3H-thymidine and harvested. A”, “μCi/ml). A similar approach was used to establish selectivity of the anti-proliferative activity by testing a battery of tumor lines derived from a variety of tissues, mostly human in origin. An attempt was made to generate proliferation data from at least 2 cell lines from each tissue selected. […]” for “μCi/ml).”

The test system of the next assay is IgE responses. The assay is described as follows: In vitro IgE responses to IL-4/anti-CD40 Ab. The format is cell-based.
For assay [2], the system named is EGF-responsive cell lines. The assay is described as follows: Proliferation of EGF-responsive (ER-negative/EGFR-positive) breast cancer cell lines. The format is cell-based. As to conditions: in vitro. On the procedure:
as §1, with “A” for “Spleen cell cultures were established from naive BALB/c mice and incubated for 4 days in the presence of stimulus and drug. Cultures were pulsed for 4 hours with 3H-thymidine and harvested. A”, “μCi/ml). A similar approach was used to establish selectivity of the anti-proliferative activity by testing a battery of tumor lines derived from a variety of tissues, mostly human in origin. An attempt was made to generate proliferation data from at least 2 cell lines from each tissue selected. […]” for “μCi/ml).”

The test system of assay [3] is tumor lines derived from a variety of tissues. The assay is described as follows: Proliferation of a battery of tumor lines from a variety of tissues. The format is cell-based, mostly human. As to conditions: in vitro. As to the method: as §1, with “A” for “Spleen cell cultures were established from naive BALB/c mice and incubated for 4 days in the presence of stimulus and drug. Cultures were pulsed for 4 hours with 3H-thymidine and harvested. A”, “μCi/ml). A similar approach was used to establish selectivity of the anti-proliferative activity by testing a battery of tumor lines derived from a variety of tissues, mostly human in origin. An attempt was made to generate proliferation data from at least 2 cell lines from each tissue selected. […]” for “μCi/ml).”

SMILES strings stand for the structures.

As for `O=C(Nc1ccccn1)c1ccc2[nH]c(-c3ccc(NC(=O)C45C[C@H]6C[C@@H](C4)C[C@@H](C5)C6)cc3)nc2c1` [Compound I.82], in assay [1] (cultured with IL-4/anti-CD40 Ab), the “proliferation of M12.4.1 cells, potency” value is recorded as “increased”. Besides, the “proliferation of M12.4.1 cells” value in assay [1] (un-stimulated) is listed as “suppressed the proliferation of M12.4.1 cells but with lower potency”. For the same molecule, in the assay with Splenic B cells (in vitro), the “anti-proliferative activity to T and B lymphocytes exposed to a variety of immunogenic stimuli” value was “highly potent”. Also, the “spleen cell proliferation responses (FIG. 1)” value with Splenic B cells (naive BALB/c mice, 4 days with stimulus and drug, 4 hours 3H-thymidine pulse) was “suppression of spleen cell proliferation responses”. In addition, the “B cell proliferation response to IL-4/anti-CD40 Ab” value in the assay with Splenic B cells (spleen cells, IL-4 (10 ng/ml) plus anti-CD40 Ab (100 ng/ml)) is on record as “suppressed”. Besides, the “B cell proliferation response to PMA/ionomycin” value with Splenic B cells (spleen cells, PMA (10 ng/ml) plus ionomycin (100 nM)) is given as “suppressed”. In the assay on cytokine release, the ConA-stimulated cytokine release result is reported as “inhibition”. Further, the “number of ER-positive cell lines potently inhibited” value in the assay with ER-positive cell lines is 2 of the 5. Also, in the assay on IgE responses, the “in vitro IgE responses to IL-4/anti-CD40 Ab” value is “suppressed in vitro IgE responses”. Also, in assay [2], the “proliferation of all EGF-responsive cell lines” value is reported as “potently inhibited”. Also, the “sensitivity of tumor cell lines (proliferation)” value in assay [3] is on record as “a number of tumor cell lines are sensitive”.

The values above are taken from patent publication US7282518B2, “Benzimidazole compounds for modulating IgE and inhibiting cellular proliferation” (Avanir Pharmaceuticals, priority 2001, dated 2007).
